Laboratory results from PubChem BioAssay AID743317 (Broad Institute, 2014).
Inconclusive results are not listed.

Target: Endoplasmic reticulum aminopeptidase 1 (Homo sapiens) (UniProt Q9NZ08)
Experiment: ERAP1 aminopeptidase activity change, dose response, biochemical, fluorescence, cherry-pick (AID 743317)
Conditions: ERAP1 enzyme, Leu-AMC fluorescence, 60 min

Chain of Endoplasmic reticulum aminopeptidase 1 (Homo sapiens) (Q9NZ08 whole entry, looked up): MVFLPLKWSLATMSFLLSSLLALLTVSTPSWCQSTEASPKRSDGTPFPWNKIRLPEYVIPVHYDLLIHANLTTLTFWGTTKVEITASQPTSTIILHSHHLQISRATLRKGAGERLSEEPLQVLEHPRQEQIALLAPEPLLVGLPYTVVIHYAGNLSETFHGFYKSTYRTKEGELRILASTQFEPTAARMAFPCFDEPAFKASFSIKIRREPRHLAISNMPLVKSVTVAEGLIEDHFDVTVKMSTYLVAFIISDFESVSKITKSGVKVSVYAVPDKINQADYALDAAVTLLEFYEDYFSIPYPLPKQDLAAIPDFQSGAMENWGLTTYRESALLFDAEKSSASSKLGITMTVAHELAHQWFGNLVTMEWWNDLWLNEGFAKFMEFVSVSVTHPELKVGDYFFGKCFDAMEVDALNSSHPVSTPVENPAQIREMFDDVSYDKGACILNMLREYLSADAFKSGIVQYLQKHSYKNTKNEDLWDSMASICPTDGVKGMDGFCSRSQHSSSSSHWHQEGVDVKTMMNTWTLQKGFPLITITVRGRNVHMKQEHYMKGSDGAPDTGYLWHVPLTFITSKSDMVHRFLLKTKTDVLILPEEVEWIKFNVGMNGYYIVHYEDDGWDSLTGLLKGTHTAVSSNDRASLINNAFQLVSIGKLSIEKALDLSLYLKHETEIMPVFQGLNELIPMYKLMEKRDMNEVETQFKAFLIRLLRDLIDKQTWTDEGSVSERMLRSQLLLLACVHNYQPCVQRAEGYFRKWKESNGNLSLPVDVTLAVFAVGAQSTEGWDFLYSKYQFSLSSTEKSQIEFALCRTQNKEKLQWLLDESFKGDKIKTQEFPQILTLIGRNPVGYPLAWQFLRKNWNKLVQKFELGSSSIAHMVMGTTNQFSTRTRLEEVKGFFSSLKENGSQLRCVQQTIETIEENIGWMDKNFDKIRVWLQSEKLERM

AC40: 3.74 µM
Compound: COc1ccc(NC(=O)Nc2ccc3c(c2)C(=O)N([C@@H](C)CO)C[C@@H](C)[C@H](CN(C)Cc2ccc(C(=O)O)cc2)OCCCC[C@H](C)O3)cc1
